Structures are written as SMILES.

What is called melting point is the temperature of the solid-liquid transition.

On to `CCCc1cc(N2CCC(NCC(O)c3cnc4ccccc4c3)CC2)nc2sc(C(N)=O)c(N)c12` (centres unmarked) [Example 8, 3-Amino-6-[4-(2-hydroxy-2-quinolin-3-yl-ethylamino)-piperidin-1-yl]-4-propyl-thieno[2,3-b]pyridine-2-carboxylic acid amide], for which the melting point lay within 213 to 216 °C.
Under `NC(=O)c1sc2nc(N3CCC(NC[C@@H](O)c4ccccn4)CC3)cc(C(F)(F)F)c2c1N` [Example 22, 3-Amino-6-[4-((R)-2-hydroxy-2-pyridin-2-yl-ethylamino)-piperidin-1-yl]-4-trifluoromethyl-thieno[2,3-b]pyridine-2-carboxylic acid amide] stands 165 to 167 °C.
The result for `NC(=O)c1sc2nc(N3CCC(NCC(O)c4ccc5ccccc5n4)CC3)cc(C(F)(F)F)c2c1N` (centres unmarked) [Example 10, 3-Amino-6-[4-(2-hydroxy-2-quinolin-2-yl-ethylamino)-piperidin-1-yl]-4-trifluoromethyl-thieno[2,3-b]pyridine-2-carboxylic acid amide] reads 198 to 201 °C; that for `NC(=O)c1sc2nc(N3CCC(NCC(O)c4cccnc4)CC3)cc(C(F)(F)F)c2c1N` (centres unmarked) [Example 9, 3-Amino-6-[4-(2-hydroxy-2-pyridin-3-yl-ethylamino)-piperidin-1-yl]-4-trifluoromethyl-thieno[2,3-b]pyridine-2-carboxylic acid amide], 179 to 181 °C; that for `CCCc1cc(N2CCC(NCC(O)c3cc4ccccc4cn3)CC2)nc2sc(C(N)=O)c(N)c12` (centres unmarked) [Example 11, 3-Amino-6-[4-(2-hydroxy-2-isoquinolin-3-yl-ethylamino)-piperidin-1-yl]-4-propyl-thieno[2,3-b]pyridine-2-carboxylic acid amide], 213 to 215 °C (dec.).

These data come from patent US7119102B2, “Substituted 3-amino-thieno[2,3-b]pyridine-2-carboxylic acid amide compounds and processes for preparing and their uses” (Boehringer Ingelheim Pharmaceuticals, Inc., priority 2003, dated 2006).
